Experimental data taken from US11529361B2, “Halogenated salicylanilides for treating Clostridium infections” (UNION therapeutics A/S, priority 2015, dated 2022).
Values after ≈ are worked out from the molar mass of the structure shown. Read-outs that look alike come from different tables or passages of the source.

Key:
[1] = tested on: C. difficile clinical isolates; test: MIC determination by microbroth dilution per CLSI guideline (Example 1); format: cell-based, Clostridium difficile; conditions: Clostridioides difficile
[2] = tested on: 24 clinical isolate strains of C. difficile; test: Additional MIC determinations, antibacterial activity by OD600 (Example 3); format: cell-based, Clostridium difficile
[3] = tested on: rats; conditions: p.o.; cited from earlier work
[4] = tested on: C. difficile; conditions: published data (footnote a); cited from earlier work
[5] = tested on: Clostridium difficile infection (CDAD); conditions: phase III clinical trials, versus vancomycin; cited from earlier work
[6] = tested on: Clostridium difficile 7-6011209; format: cell-based
[7] = Table 3, strain 7-6011209, read-out: C. difficile Strain 7-6011209 MIC
[8] = Table 3, strain 12055, read-out: C. difficile Strain 12055 MIC

SMILES	MIC ([2]; strain 7-5085357 (ST028))	MIC ([2]; strain 7-6011209 (ST002))	MIC ([2]; strain 7-6778909 (ST016))	MIC ([2]; strain 7-6854508 (ST013))	MIC ([2]; strain 7-6870430 (ST001))	MIC ([2]; strain 7-7104022 (ST103))	MIC ([2]; strain 7-7116411 (ST005))	MIC ([2]; strain 7-7124449 (ST009))	MIC ([2]; strain 7-7149204 (ST006))	MIC ([2]; strain 7-7150288 (ST003))	MIC ([2]; strain 7-7150318 (ST059))	MIC ([2]; strain 7-7150628 (ST034))	MIC ([2]; strain 7-7150997 (ST049))	MIC ([2]; strain 7-7154992 (ST139))	MIC ([2]; strain 7-7200552 (ST017))	MIC ([2]; strain 12055)	MIC ([2]; strain 12060)	MIC ([2]; strain 12061)	MIC ([2]; strain 12063)	MIC ([2]; strain 12064)	other results
CC(=O)Oc1c(I)cc(I)cc1C(=O)Nc1ccc(Cl)cc1 [Clioxanide]	< 0.008 µg/mL	< 0.008 µg/mL	< 0.008 µg/mL	< 0.008 µg/mL	< 0.008 µg/mL	< 0.008 µg/mL	0.125 µg/mL (≈ 0.231 µM)	< 0.008 µg/mL	< 0.008 µg/mL	< 0.008 µg/mL	< 0.008 µg/mL	< 0.008 µg/mL	< 0.008 µg/mL	< 0.008 µg/mL	< 0.008 µg/mL	< 0.008 µg/mL	< 0.008 µg/mL	< 0.008 µg/mL	< 0.008 µg/mL	< 0.008 µg/mL	MIC [1, 7]: 0.031 µg/mL (≈ 0.0572 µM); MIC [1, 8]: < 0.08 µg/mL; MIC ([2]; strain 7-7363761 (ST008)): < 0.008 µg/mL; MIC ([2]; strain 12062): < 0.008 µg/mL; MIC ([2]; strain 12065): < 0.008 µg/mL; MIC ([2]; strain 12066): 0.063 µg/mL (≈ 0.116 µM)
Cc1cc(C(C#N)c2ccc(Cl)cc2)c(Cl)cc1NC(=O)c1cc(I)cc(I)c1O (stereo not drawn) [Closantel]	0.016 µg/mL (≈ 0.0241 µM)	0.016 µg/mL (≈ 0.0241 µM)	0.031 µg/mL (≈ 0.0468 µM)	0.25 µg/mL (≈ 0.377 µM)	0.031 µg/mL (≈ 0.0468 µM)	0.25 µg/mL (≈ 0.377 µM)	0.25 µg/mL (≈ 0.377 µM)	0.25 µg/mL (≈ 0.377 µM)	0.31 µg/mL (≈ 0.468 µM)	0.031 µg/mL (≈ 0.0468 µM)	0.63 µg/mL (≈ 0.95 µM)	0.063 µg/mL (≈ 0.095 µM)	0.016 µg/mL (≈ 0.0241 µM)	0.063 µg/mL (≈ 0.095 µM)	0.5 µg/mL (≈ 0.754 µM)	0.063 µg/mL (≈ 0.095 µM)	0.125 µg/mL (≈ 0.189 µM)	0.063 µg/mL (≈ 0.095 µM)	0.031 µg/mL (≈ 0.0468 µM)	0.031 µg/mL (≈ 0.0468 µM)	LD50 [3]: 262 to 342 mg/kg; MIC [1, 7]: 0.125 µg/mL (≈ 0.189 µM); MIC [1, 8]: 0.125 µg/mL (≈ 0.189 µM); MIC ([2]; strain 12062): 0.063 µg/mL (≈ 0.095 µM); MIC ([2]; strain 12065): 0.063 µg/mL (≈ 0.095 µM); MIC ([2]; strain 12066): 0.5 µg/mL (≈ 0.754 µM)
Cc1ncc([N+](=O)[O-])n1CCO [Metronidazole]	1 µg/mL (≈ 5.84 µM)	0.031 µg/mL (≈ 0.181 µM)	0.25 µg/mL (≈ 1.46 µM)	1 µg/mL (≈ 5.84 µM)	1 µg/mL (≈ 5.84 µM)	> 8 µg/mL	> 16 µg/mL	2 µg/mL (≈ 11.7 µM)	0.5 µg/mL (≈ 2.92 µM)	0.063 µg/mL (≈ 0.368 µM)	1 µg/mL (≈ 5.84 µM)	0.5 µg/mL (≈ 2.92 µM)	0.031 µg/mL (≈ 0.181 µM)	1 µg/mL (≈ 5.84 µM)	2 µg/mL (≈ 11.7 µM)	1 µg/mL (≈ 5.84 µM)	1 µg/mL (≈ 5.84 µM)	1 µg/mL (≈ 5.84 µM)	0.25 µg/mL (≈ 1.46 µM)	0.031 µg/mL (≈ 0.181 µM)	Highest MIC observed [4]: >32^a μg/mL; MIC90 [4]: 1^a μg/mL; MIC ([2]; strain 12065): 1 µg/mL (≈ 5.84 µM); MIC ([2]; strain 12066): 1 µg/mL (≈ 5.84 µM)
CCc1c(Cl)c(O)c(Cl)c(O)c1C(=O)O[C@H]1[C@H](O)[C@H](OC)[C@H](OC/C2=C\C=C\C[C@H](O)/C(C)=C/[C@H](CC)[C@@H](O[C@@H]3OC(C)(C)[C@@H](OC(=O)C(C)C)[C@H](O)[C@@H]3O)/C(C)=C/C(C)=C/C[C@@H]([C@@H](C)O)OC2=O)O[C@@H]1C [Fidaxomycin]	< 0.008 µg/mL	< 0.008 µg/mL	< 0.008 µg/mL	< 0.008 µg/mL	0.016 µg/mL (≈ 0.0151 µM)	< 0.008 µg/mL	2 µg/mL (≈ 1.89 µM)	< 0.008 µg/mL	< 0.008 µg/mL	< 0.008 µg/mL	< 0.008 µg/mL	< 0.008 µg/mL	< 0.008 µg/mL	< 0.008 µg/mL	< 0.008 µg/mL	< 0.008 µg/mL	< 0.008 µg/mL	< 0.008 µg/mL	< 0.008 µg/mL	< 0.008 µg/mL	clinical cure of CDAD [5]: non-inferior to vancomycin; preventing recurrence of CDAD [5]: superior to vancomycin; Highest MIC observed [4]: 1 ^ μg/mL; MIC90 [4]: 0.5^a μg/mL; formation of heat-resistant spores over time [6]: suppressed formation of spores for the first 48 hours of the study; MIC ([2]; strain 7-7363761 (ST008)): < 0.008 µg/mL; MIC ([2]; strain 12062): < 0.008 µg/mL; MIC ([2]; strain 12065): < 0.008 µg/mL; MIC ([2]; strain 12066): < 0.008 µg/mL
